Laboratory results as given in patent US20120122860A1, “SOLID FORMS OF SULFONAMIDES AND AMINO ACIDS” (Plexxikon, Inc., priority 2009, published 2012).

Key:
Src = Src (Homo sapiens, UniProt P12931); assay: Kinase activity assay, Src
Kit = Kit (Homo sapiens, UniProt P10721); assay: Kinase activity assay, Kit
Kdr = Kdr (Homo sapiens, UniProt P35968); assay: Kinase activity assay, Kdr
TEC = molecular target: T1, TEC (Homo sapiens, UniProt P42680); assay: Kinase activity assay, TEC
T1 sequence (P42680 1-631): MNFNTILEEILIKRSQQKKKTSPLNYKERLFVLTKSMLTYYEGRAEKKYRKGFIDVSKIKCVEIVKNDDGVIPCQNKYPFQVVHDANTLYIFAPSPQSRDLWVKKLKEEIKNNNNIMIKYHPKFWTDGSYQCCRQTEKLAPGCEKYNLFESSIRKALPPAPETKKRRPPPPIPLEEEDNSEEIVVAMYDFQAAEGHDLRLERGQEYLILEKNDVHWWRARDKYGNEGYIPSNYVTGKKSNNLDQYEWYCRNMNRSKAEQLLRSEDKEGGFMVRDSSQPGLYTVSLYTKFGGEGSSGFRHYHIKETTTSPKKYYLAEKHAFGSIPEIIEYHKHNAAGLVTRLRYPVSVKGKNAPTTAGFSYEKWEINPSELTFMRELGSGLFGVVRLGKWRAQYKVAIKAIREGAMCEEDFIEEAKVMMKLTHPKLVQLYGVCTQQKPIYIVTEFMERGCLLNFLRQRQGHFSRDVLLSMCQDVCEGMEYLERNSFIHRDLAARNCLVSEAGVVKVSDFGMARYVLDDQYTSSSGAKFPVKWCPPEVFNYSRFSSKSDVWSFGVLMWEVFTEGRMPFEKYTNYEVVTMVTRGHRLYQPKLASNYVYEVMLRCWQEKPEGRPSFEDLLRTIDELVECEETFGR

MAP4K4 = MAP4K4 (Homo sapiens, UniProt O95819); assay: Kinase activity assay, MAP4K4
Chain of MAP4K4 (O95819 whole entry): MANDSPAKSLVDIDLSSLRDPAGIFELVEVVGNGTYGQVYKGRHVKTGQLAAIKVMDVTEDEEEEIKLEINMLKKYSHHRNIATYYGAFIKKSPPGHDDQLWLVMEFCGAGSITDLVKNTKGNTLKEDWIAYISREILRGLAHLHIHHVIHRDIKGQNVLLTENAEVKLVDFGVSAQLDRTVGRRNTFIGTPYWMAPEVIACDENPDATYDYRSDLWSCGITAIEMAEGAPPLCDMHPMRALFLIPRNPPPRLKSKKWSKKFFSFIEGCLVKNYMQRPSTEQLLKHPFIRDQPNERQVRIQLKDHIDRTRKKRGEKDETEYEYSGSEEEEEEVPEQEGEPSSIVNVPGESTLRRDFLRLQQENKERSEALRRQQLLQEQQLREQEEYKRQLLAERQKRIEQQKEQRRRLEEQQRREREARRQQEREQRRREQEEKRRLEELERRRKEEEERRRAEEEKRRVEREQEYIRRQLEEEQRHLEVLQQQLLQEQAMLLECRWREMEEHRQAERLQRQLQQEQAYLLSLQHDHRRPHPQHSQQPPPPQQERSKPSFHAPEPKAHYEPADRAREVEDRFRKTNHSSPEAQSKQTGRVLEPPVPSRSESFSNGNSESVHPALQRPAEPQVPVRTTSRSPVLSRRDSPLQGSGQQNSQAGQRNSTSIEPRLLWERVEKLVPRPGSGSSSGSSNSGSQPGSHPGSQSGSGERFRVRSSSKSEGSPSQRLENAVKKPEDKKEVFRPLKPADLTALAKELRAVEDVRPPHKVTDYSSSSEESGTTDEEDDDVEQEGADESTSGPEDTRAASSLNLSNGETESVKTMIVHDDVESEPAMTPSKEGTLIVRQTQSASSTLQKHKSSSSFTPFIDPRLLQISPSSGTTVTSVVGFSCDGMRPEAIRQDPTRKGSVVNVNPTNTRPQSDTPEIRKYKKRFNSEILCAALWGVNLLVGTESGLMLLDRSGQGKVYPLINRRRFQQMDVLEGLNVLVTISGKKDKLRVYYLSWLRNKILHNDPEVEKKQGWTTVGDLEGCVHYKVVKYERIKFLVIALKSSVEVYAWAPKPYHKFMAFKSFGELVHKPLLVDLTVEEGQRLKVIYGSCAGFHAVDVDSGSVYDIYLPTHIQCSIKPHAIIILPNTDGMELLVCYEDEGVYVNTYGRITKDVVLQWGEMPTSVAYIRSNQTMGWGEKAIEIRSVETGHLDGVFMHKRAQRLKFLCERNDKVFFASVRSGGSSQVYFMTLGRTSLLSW

B-Raf V600E = B-Raf V600E (Homo sapiens, UniProt P15056, V600E); assay: Kinase activity assay, B-Raf V600E; format: biochemical; settings: read-out: activity toward kinase B-Raf V600E, IC50
Fms = Fms (Homo sapiens, UniProt P07333); assay: Kinase activity assay, Fms
Chain of Fms (P07333 20-972): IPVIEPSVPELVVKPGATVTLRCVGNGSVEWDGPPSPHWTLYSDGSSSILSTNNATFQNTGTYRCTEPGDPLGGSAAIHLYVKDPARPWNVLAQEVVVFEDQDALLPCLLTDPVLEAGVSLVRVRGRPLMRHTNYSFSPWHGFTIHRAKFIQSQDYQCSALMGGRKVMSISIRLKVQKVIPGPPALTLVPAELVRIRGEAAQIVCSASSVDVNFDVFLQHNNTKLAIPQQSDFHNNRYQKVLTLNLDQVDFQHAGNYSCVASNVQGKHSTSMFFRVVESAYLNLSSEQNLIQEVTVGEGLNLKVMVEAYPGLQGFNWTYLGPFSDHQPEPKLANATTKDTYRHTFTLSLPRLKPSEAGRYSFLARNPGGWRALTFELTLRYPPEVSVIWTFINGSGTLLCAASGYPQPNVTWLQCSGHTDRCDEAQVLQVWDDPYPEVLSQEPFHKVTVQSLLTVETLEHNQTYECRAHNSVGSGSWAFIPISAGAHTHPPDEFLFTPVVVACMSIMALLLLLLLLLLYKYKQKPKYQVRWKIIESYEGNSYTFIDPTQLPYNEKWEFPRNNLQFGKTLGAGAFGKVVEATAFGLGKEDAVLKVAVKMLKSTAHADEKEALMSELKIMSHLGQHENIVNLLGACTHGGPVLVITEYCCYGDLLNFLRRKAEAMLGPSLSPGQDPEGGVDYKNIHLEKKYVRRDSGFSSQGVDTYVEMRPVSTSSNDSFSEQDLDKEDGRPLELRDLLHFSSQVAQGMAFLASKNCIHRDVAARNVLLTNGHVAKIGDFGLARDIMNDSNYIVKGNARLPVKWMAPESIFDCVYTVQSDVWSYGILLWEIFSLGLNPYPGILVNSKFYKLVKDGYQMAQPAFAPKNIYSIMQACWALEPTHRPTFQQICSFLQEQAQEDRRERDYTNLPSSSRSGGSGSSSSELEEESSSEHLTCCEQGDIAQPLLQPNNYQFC

B-Raf = B-Raf (Homo sapiens, UniProt P15056); assay: Kinase activity assay, B-Raf; format: biochemical; settings: read-out: activity toward kinase B-Raf, IC50
Chain of B-Raf (P15056 whole entry): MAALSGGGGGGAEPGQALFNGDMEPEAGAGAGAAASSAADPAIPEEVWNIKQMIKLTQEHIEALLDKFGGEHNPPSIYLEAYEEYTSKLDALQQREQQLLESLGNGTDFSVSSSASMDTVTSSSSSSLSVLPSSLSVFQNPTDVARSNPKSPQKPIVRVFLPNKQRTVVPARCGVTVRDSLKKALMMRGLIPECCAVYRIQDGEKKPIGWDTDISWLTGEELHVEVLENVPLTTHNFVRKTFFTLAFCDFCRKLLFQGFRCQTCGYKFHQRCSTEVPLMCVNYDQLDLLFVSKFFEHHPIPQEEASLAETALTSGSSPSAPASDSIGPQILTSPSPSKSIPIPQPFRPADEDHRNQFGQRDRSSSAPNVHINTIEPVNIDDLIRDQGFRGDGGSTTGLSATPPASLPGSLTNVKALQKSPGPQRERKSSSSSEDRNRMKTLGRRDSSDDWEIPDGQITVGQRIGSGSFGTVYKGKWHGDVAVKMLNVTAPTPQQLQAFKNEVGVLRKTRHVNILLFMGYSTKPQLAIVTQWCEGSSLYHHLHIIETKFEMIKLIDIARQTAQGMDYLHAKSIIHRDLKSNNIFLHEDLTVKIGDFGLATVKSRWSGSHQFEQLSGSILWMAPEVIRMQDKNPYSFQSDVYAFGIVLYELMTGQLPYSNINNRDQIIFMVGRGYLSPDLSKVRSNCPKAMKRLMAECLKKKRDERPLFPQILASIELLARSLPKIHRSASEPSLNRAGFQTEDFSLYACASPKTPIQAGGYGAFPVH

C-Raf = C-Raf (Homo sapiens, UniProt P04049); assay: Kinase activity assay, C-Raf
Chain of C-Raf (P04049 whole entry): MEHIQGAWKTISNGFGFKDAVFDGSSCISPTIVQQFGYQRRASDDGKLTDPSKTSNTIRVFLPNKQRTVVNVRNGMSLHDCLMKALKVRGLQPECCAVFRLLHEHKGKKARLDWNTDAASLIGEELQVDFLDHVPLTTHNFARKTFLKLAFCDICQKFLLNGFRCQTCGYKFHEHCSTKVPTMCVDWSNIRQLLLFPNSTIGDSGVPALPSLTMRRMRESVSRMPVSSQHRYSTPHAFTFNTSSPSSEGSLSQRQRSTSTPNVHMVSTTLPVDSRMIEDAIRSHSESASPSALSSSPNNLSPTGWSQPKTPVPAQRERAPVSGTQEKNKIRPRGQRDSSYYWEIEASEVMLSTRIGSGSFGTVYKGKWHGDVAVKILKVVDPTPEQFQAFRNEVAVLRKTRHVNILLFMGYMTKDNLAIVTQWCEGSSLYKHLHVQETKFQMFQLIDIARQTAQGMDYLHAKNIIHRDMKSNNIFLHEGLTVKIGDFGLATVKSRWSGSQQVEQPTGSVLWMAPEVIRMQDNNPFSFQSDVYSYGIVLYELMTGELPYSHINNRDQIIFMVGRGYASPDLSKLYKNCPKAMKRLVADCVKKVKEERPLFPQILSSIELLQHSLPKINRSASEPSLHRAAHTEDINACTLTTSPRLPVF

Chain of Kit (P10721 26-976): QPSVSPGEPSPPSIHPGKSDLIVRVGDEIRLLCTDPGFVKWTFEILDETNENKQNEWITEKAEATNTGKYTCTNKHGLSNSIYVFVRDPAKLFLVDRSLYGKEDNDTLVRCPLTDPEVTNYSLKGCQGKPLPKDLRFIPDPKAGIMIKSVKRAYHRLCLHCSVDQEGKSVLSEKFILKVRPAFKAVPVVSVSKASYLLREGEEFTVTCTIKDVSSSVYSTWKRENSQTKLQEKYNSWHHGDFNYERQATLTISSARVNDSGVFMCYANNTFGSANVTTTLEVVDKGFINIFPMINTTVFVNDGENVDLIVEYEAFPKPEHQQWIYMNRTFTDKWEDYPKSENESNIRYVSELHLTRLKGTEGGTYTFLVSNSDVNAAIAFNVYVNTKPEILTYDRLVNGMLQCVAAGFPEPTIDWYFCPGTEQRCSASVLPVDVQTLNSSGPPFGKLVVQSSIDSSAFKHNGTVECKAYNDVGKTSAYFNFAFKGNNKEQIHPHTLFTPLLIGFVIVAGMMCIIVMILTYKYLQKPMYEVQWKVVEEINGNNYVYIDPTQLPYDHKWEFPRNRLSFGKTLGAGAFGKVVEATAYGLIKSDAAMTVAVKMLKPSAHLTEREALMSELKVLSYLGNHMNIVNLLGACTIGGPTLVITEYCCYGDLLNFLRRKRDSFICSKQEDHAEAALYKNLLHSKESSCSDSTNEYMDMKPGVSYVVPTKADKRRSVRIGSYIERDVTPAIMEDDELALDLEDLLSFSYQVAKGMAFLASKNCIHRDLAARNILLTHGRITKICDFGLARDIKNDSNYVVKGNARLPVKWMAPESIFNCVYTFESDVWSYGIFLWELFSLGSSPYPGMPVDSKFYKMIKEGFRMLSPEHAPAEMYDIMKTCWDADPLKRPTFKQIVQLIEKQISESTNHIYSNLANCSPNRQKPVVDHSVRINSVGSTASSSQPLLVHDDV
Chain of Src (P12931 whole entry): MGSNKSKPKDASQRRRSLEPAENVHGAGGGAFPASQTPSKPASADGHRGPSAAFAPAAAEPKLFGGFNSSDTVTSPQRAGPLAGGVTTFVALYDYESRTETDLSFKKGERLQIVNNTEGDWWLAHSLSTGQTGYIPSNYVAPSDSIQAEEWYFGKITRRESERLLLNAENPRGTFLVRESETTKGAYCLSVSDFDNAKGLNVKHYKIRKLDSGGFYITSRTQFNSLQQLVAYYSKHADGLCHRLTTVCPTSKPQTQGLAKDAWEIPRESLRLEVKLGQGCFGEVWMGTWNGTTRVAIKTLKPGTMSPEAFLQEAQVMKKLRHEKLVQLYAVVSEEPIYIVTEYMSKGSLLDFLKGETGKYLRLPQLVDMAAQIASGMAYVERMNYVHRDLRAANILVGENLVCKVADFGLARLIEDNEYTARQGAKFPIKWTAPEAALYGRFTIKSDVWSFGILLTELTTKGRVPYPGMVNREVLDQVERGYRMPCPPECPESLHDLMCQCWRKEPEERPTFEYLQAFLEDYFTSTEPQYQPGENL

| IC50 (Src) | IC50 (Kit) | IC50 (Kdr) | IC50 (TEC) | IC50 (MAP4K4) | IC50 (B-Raf V600E) | IC50 (Fms) | IC50 (B-Raf) | IC50 (C-Raf) | Compound |
| --- | --- | --- | --- | --- | --- | --- | --- | --- | --- |
| ≤ 10 µM | ≤ 10 µM | ≤ 10 µM | ≤ 10 µM | ≤ 10 µM | ≤ 10 µM |  |  |  | CCCC(C)S(=O)(=O)Nc1ccc(F)c(C(=O)c2c[nH]c3ncc(OC)cc23)c1F (stereo not shown) [P-2309, Pentane-2-sulfonic acid [2,4-difluoro-3-(5-methoxy-1H-pyrrolo[2,3-b]pyridine-3-carbonyl)-phenyl]-amide] |
|  | ≤ 10 µM | ≤ 10 µM | ≤ 10 µM | ≤ 10 µM |  | ≤ 10 µM |  |  | Cc1cnc2[nH]cc(C(=O)c3cc(NS(=O)(=O)C4CCCCC4)ccc3F)c2c1 [P-2443, Cyclohexanesulfonic acid [4-fluoro-3-(5-methyl-1H-pyrrolo[2,3-b]pyridine-3-carbonyl)-phenyl]-amide] |
| ≤ 10 µM | ≤ 10 µM | ≤ 10 µM | ≤ 10 µM | ≤ 10 µM | ≤ 10 µM |  | ≤ 10 µM | ≤ 10 µM | O=C(c1c(F)ccc(NS(=O)(=O)C2CCCCC2)c1F)c1c[nH]c2ncc(Cl)cc12 [P-2357, Cyclohexanesulfonic acid [3-(5-chloro-1H-pyrrolo[2,3-b]pyridine-3-carbonyl)-2,4-difluoro-phenyl]-amide] |
| ≤ 10 µM | ≤ 10 µM | ≤ 10 µM | ≤ 10 µM | ≤ 10 µM | ≤ 10 µM |  | ≤ 10 µM | ≤ 10 µM | CCC(C)S(=O)(=O)Nc1ccc(F)c(C(=O)c2c[nH]c3ncc(Cl)cc23)c1F (stereo not shown) [P-2310, Butane-2-sulfonic acid [3-(5-chloro-1H-pyrrolo[2,3-b]pyridine-3-carbonyl)-2,4-difluoro-phenyl]-amide] |
| ≤ 10 µM | ≤ 10 µM | ≤ 10 µM | ≤ 10 µM | ≤ 10 µM | ≤ 10 µM |  | ≤ 10 µM | ≤ 10 µM | Cc1cnc2[nH]cc(C(=O)c3c(F)ccc(NS(=O)(=O)c4c(F)cccc4F)c3F)c2c1 [P-2024, N-[2,4-Difluoro-3-(5-methyl-1H-pyrrolo[2,3-b]pyridine-3-carbonyl)-phenyl]-2,6-difluoro-benzenesulfonamide] |
| ≤ 10 µM | ≤ 10 µM | ≤ 10 µM | ≤ 10 µM | ≤ 10 µM | ≤ 10 µM |  | ≤ 10 µM | ≤ 10 µM | COc1cnc2[nH]cc(C(=O)c3c(F)ccc(NS(=O)(=O)C4CCCCC4)c3F)c2c1 [P-2355, Cyclohexanesulfonic acid [2,4-difluoro-3-(5-methoxy-1H-pyrrolo[2,3-b]pyridine-3-carbonyl)-phenyl]-amide] |
| ≤ 10 µM | ≤ 10 µM | ≤ 10 µM | ≤ 10 µM | ≤ 10 µM | ≤ 10 µM |  | ≤ 10 µM | ≤ 10 µM | COc1ccnc2[nH]cc(C(=O)c3c(F)ccc(NS(=O)(=O)c4cccc(F)c4)c3F)c12 [P-2023, N-[2,4-Difluoro-3-(4-methoxy-1H-pyrrolo[2,3-b]pyridine-3-carbonyl)-phenyl]-3-fluoro-benzenesulfonamide] |
| ≤ 10 µM | ≤ 10 µM | ≤ 10 µM | ≤ 10 µM | ≤ 10 µM | ≤ 10 µM | ≤ 10 µM | ≤ 10 µM | ≤ 10 µM | CS(=O)(=O)c1cccc(-c2cnc3[nH]cc(C(=O)c4cc(NS(=O)(=O)C5CCCC5)ccc4F)c3c2)c1 [P-2445, Cyclopentanesulfonic acid {4-fluoro-3-[5-(3-methanesulfonyl-phenyl)-1H-pyrrolo[2,3-b]pyridine-3-carbonyl]-phenyl}-amide] |
| ≤ 10 µM | ≤ 10 µM | ≤ 10 µM | ≤ 10 µM | ≤ 10 µM | ≤ 10 µM |  | ≤ 10 µM | ≤ 10 µM | COc1cnc2[nH]cc(C(=O)c3c(F)ccc(NS(=O)(=O)C4CCCC4)c3F)c2c1 [P-2356, Cyclopentanesulfonic acid [2,4-difluoro-3-(5-methoxy-1H-pyrrolo[2,3-b]pyridine-3-carbonyl)-phenyl]-amide] |
| ≤ 10 µM | ≤ 10 µM | ≤ 10 µM | ≤ 10 µM | ≤ 10 µM | ≤ 10 µM |  | ≤ 10 µM | ≤ 10 µM | N#Cc1cnc2[nH]cc(C(=O)c3c(F)ccc(NS(=O)(=O)c4ccc(F)cc4F)c3F)c2c1 [P-2030, N-[3-(5-Cyano-1H-pyrrolo[2,3-b]pyridine-3-carbonyl)-2,4-difluoro-phenyl]-2,4-difluoro-benzenesulfonamide] |
| ≤ 10 µM | ≤ 10 µM | ≤ 10 µM | ≤ 10 µM | ≤ 10 µM | ≤ 10 µM |  | ≤ 10 µM | ≤ 10 µM | COc1ccnc2[nH]cc(C(=O)c3c(F)ccc(NS(=O)(=O)c4ccccc4F)c3F)c12 [P-2021, N-[2,4-Difluoro-3-(4-methoxy-1H-pyrrolo[2,3-b]pyridine-3-carbonyl)-phenyl]-2-fluoro-benzenesulfonamide] |
| ≤ 10 µM | ≤ 10 µM | ≤ 10 µM | ≤ 10 µM | ≤ 10 µM | ≤ 10 µM |  | ≤ 10 µM | ≤ 10 µM | N#Cc1cnc2[nH]cc(C(=O)c3c(F)ccc(NS(=O)(=O)c4c(F)cccc4F)c3F)c2c1 [P-2029, N-[3-(5-Cyano-1H-pyrrolo[2,3-b]pyridine-3-carbonyl)-2,4-difluoro-phenyl]-2,6-difluoro-benzenesulfonamide] |
| ≤ 10 µM | ≤ 10 µM | ≤ 10 µM | ≤ 10 µM | ≤ 10 µM | ≤ 10 µM | ≤ 10 µM | ≤ 10 µM | ≤ 10 µM | O=C(c1c(F)ccc(NS(=O)(=O)c2c(F)cccc2F)c1F)c1c[nH]c2ncc(Cl)cc12 [P-2003, N-[3-(5-Chloro-1H-pyrrolo[2,3-b]pyridine-3-carbonyl)-2,4-difluoro-phenyl]-2,6-difluoro-benzenesulfonamide] |
| ≤ 10 µM | ≤ 10 µM | ≤ 10 µM | ≤ 10 µM | ≤ 10 µM | ≤ 10 µM |  | ≤ 10 µM | ≤ 10 µM | COc1ccnc2[nH]cc(C(=O)c3c(F)ccc(NS(=O)(=O)c4c(F)cccc4F)c3F)c12 [P-2031, N-[2,4-Difluoro-3-(4-methoxy-1H-pyrrolo[2,3-b]pyridine-3-carbonyl)-phenyl]-2,6-difluoro-benzenesulfonamide] |
